# Laboratory results published in US12227509B2, “Dihydropyrazolopyrazinone derivative having MGAT2 inhibitory activity” (Shionogi & Co., Ltd., priority 2019, dated 2025).
# Target: recombinant human MGAT2 (Homo sapiens (Human), UniProt Q3SYC2)
# Experiment: Measurement of human MGAT2 inhibitory activity
# Type: biochemical
# Conditions: concentration exhibiting 50% enzyme inhibition; recombinant human MGAT2, 2-Oleoylglycerol/Oleoyl-CoA
# Method: A full-length human MGAT2 gene to which a Flag-tag had been added at the N-terminal was inserted into pFastBac (from Invitrogen). A recombinant baculovirus was produced in accordance with the protocol for a Bac-to-Bac baculovirus expression system (produced by Invitrogen), and Sf-9 cells were infected therewith. The cells were collected and sonicated, and then the membrane fraction was collected through centrifugation. Western blotting analysis with an anti-Flag antibody was performed for the membrane fraction to confirm expression, and the membrane fraction was used as a recombinant human MGAT2 enzyme solution.
# Solutions of the compounds of the present invention in DMSO were each aliquoted into 0.2-μL portions in a 384-well polystyrene microplate produced by Corning Incorporated, and 5 μL of an enzyme solution prepared with an assay buffer (100 mmol/L phosphate buffer (pH 7.4) containing 2 mmol/L DTT) and 5 μL of a substrate solution (100 mmol/L phosphate buffer (pH 7.4), 30 μmol/L 2-Oleoylglycerol, 10 μmol/L Oleoyl-CoA) were added thereto, and the resultant was stirred and centrifuged, and incubated in a moist chamber at room temperature for 1 hour. After enzymatic reaction, 50 μL of a quenching solution (containing 0.2 μmol/L Diolein-d5, 0.4% formic acid, and 50% isopropanol) containing Internal Standard (IS) was added to terminate the reaction, and the resultant was sealed in a plate produced by Shimadzu GLC Ltd., and then stirred and centrifuged, and measurement was performed by using an electrospray ionization method with a RapidFire360 and Agilent 6550 Q-TOF mass spectrometer. Diolein as a reaction product (P) of 2-Oleoylglycerol as the substrate and an ammonium adduct ion of the IS were detected, and the peak intensity ratio, P/IS, was calculated from the peak heights to evaluate the inhibitory activity. Inhibitory activities with/without addition of enzyme were defined as Control (+)/Control (−), respectively, and the respective % inhibitions were defined as 0% inhibition and 100% inhibition. The inhibitory activity was calculated from formula below with TIBCO Spotfire (produced by TIBCO Software Inc.)
# Inhibitory activity (%)=[1−{Sample−Control (−)}/{Control (+)−Control (−)}]*100 where Sample indicates a peak intensity ratio: P/IS, when the compound of the present invention was added.
# Sequence of recombinant human MGAT2 (Q3SYC2 whole entry): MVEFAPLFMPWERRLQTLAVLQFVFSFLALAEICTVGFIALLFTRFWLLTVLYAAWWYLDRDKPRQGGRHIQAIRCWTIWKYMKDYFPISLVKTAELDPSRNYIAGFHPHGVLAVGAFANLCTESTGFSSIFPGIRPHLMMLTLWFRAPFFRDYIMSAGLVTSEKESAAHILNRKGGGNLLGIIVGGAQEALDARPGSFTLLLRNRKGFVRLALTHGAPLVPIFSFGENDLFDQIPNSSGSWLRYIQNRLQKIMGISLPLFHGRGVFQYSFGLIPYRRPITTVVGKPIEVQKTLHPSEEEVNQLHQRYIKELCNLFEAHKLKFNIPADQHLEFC
row,IC50,Compound
1,4.04 nM,CCOc1ccc2c(c1)CC[C@@]21Cn2nc(-c3ccc(F)cc3)c(NC(=O)CS(C)(=O)=O)c2C(=O)N1 [Compound I-68]
2,2.78 nM,CCOc1ccc2c(c1)CC[C@@]21Cn2nc(-c3ccc(F)c(F)c3)c(NC(=O)CS(C)(=O)=O)c2C(=O)N1 [Compound I-69]
3,2.6 nM,CS(=O)(=O)CC(=O)Nc1c(-c2ccc(F)cc2)nn2c1C(=O)N[C@]1(CCOc3cc(OCC(F)(F)F)ccc31)C2 [Compound I-70]
4,1.8 nM,CS(=O)(=O)CC(=O)Nc1c(-c2ccc(F)c(F)c2)nn2c1C(=O)N[C@]1(CCOc3cc(OCC(F)(F)F)ccc31)C2 [Compound I-71]
5,2.82 nM,CS(=N)(=O)CC(=O)Nc1c(-c2ccc(Cl)c(F)c2)nn2c1C(=O)N[C@@]1(CCc3cc(OCC(F)(F)F)ccc31)C2 (stereo partly drawn) [Compound I-73]
6,1.06 nM,Cc1ccc(-c2nn3c(c2NC(=O)CS(C)(=O)=O)C(=O)N[C@@]2(CCc4cc(OCCCC(F)(F)F)ccc42)C3)nc1 [Compound I-74]
7,1.47 nM,Cc1ccc(-c2nn3c(c2NC(=O)CS(C)(=O)=O)C(=O)N[C@]2(CCc4cc(OCCCC(F)(F)F)ccc42)C3)nc1 [Compound I-75]
8,1.94 nM,Cc1ccc(-c2nn3c(c2NC(=O)CS(C)(=O)=O)C(=O)N[C@]2(CCc4cc(OCC(F)(F)F)ccc42)C3)cc1 [Compound I-76]
9,2.54 nM,Cc1cccc(-c2nn3c(c2NC(=O)CS(C)(=O)=O)C(=O)N[C@]2(CCc4cc(OCC(F)(F)F)ccc42)C3)c1 [Compound I-77]
10,88.3 nM,Cc1ccccc1-c1nn2c(c1NC(=O)CS(C)(=O)=O)C(=O)N[C@]1(CCc3cc(OCC(F)(F)F)ccc31)C2 [Compound I-78]
11,1.28 nM,CS(=O)(=O)CC(=O)Nc1c(-c2ccc(C(F)F)cc2)nn2c1C(=O)N[C@]1(CCc3cc(OCC(F)(F)F)ccc31)C2 [Compound I-80]
12,1.54 nM,CS(=O)(=O)CC(=O)Nc1c(-c2ccc(C(F)(F)F)cc2)nn2c1C(=O)N[C@]1(CCc3cc(OCC(F)(F)F)ccc31)C2 [Compound I-81]
13,6.51 nM,COc1ccc(-c2nn3c(c2NC(=O)CS(C)(=O)=O)C(=O)N[C@]2(CCc4cc(OCC(F)(F)F)ccc42)C3)cc1 [Compound I-82]

# The next lines start with the compound.
row,Compound,IC50
1,COc1ccc(-c2nn3c(c2NC(=O)CS(C)(=O)=O)C(=O)N[C@@]2(CCc4cc(OCC(F)(F)F)ccc42)C3)cc1F [Compound I-52],15.2 nM
2,Cc1c(F)cc(-c2nn3c(c2NC(=O)CS(C)(=O)=O)C(=O)N[C@@]2(CCc4cc(OCC(F)(F)F)ccc42)C3)cc1F [Compound I-53],1.75 nM
3,COCOc1ccc2c(c1)CCC21Cn2nc(-c3ccc(C#N)cn3)c(NC(=O)CS(C)(=O)=O)c2C(=O)N1 (stereo not drawn) [Compound I-54],5.88 nM
4,Cc1ccc(-c2nn3c(c2NC(=O)CS(C)(=O)=O)C(=O)NC2(CCc4cc(OCc5ccccc5)ccc42)C3)nc1 (stereo not drawn) [Compound I-55],1 nM
5,CS(=O)(=O)CC(=O)Nc1c(-c2ccc(C3CC3)cn2)nn2c1C(=O)N[C@]1(CCc3cc(OCC(F)(F)F)ccc31)C2 [Compound I-56],1.03 nM
6,CS(=O)(=O)CC(=O)Nc1c(-c2ccc(C3CC3)cn2)nn2c1C(=O)N[C@@]1(CCc3cc(OCC(F)(F)F)ccc31)C2 [Compound I-57],1.14 nM
7,CS(=O)(=O)CC(=O)Nc1c(-c2ccc(Cl)cn2)nn2c1C(=O)N[C@]1(CCc3cc(OCC(F)(F)F)ccc31)C2 [Compound I-59],0.48 nM
8,CS(=O)(=O)CC(=O)Nc1c(-c2ccc(Cl)cn2)nn2c1C(=O)N[C@@]1(CCc3cc(OCC(F)(F)F)ccc31)C2 [Compound I-60],0.527 nM
9,CS(=O)(=O)CC(=O)Nc1c(CCC2CC2)nn2c1C(=O)NC1(CN(c3ccc(C(F)(F)F)cc3)C1)C2 [Compound I-64],1.26 nM
10,Cc1ccc(-c2nn3c(c2NC(=O)CS(C)(=O)=O)C(=O)NC2(CN(c4ccc(C(F)(F)F)cc4)C2)C3)nc1 [Compound I-65],0.935 nM
11,CS(=O)(=O)CC(=O)Nc1c(-c2ccc(F)c(F)c2)nn2c1C(=O)N[C@@]1(CCOc3cc(OCC(F)(F)F)ccc31)C2 [Compound I-67],0.671 nM
